Molecules are shown by their SMILES.

Assay [1] deals with T1, XIAP L-Bir2-Bir3 (GST-XIAP Linker Bir2Bir3RING fusion protein) (Homo sapiens, UniProt P98170).
T1 construct: made in house; host or cells: E. coli DH5-alpha
In words: Caspase de-repression assay using cellular extracts (apoptosome), L-Bir2-Bir3 XIAP. Type of assay: biochemical. To be noted: 293 cell S100 extract; effective concentration to achieve 50% of activation. As for the experimental part:
GST-linker BIR2BIR3Ring: XIAP coding sequence from amino acids 93-497 cloned into PGex4T1 via BamH1 and XhoI. Amino acids 93-497 were amplified from full length XIAP in pGex4t3, using the primers: […] and GCTGCATGTGTGTCAGAGG, using standard PCR conditions. The PCR fragment was TA cloned into pCR-2.1 (invitrogen). Linker BIR2BIR3Ring was subcloned into pGex4T1 by BamHI/XhoI digestion. The plasmid was transformed into E. coli DH5α for use in protein expression and purification. […]
100 ug of 293 cell S100 extract and 0.25 uM-2 uM of GST-XIAP fusion protein (XIAP-Bir3RING, XIAP-Linker Bir2Bir3RING, or full-length XIAP) were co-incubated with serial dilutions of compound (40 uM-5 pM). Caspases present in the extracts were activated by adding 1 mM dATP, 0.1 mM ALLN, 133 ug Cytochrome C (final concentrations), and incubating at 37° C. for 25 minutes. All reactions and dilutions used S100 buffer (50 mM Pipes pH 7.0, 50 mM KCl, 0.5 mM EGTA pH 8.0, 2 mM MgCl2 supplemented with 1/1000 dilutions of 2 mg/ml Cytochalisin B, 2 mg/ml Chymotstatin, Leupeptin, Pepstatin, Antipain, 0.1M PMSF, 1M DTT). Final reaction volume was 30 ul. Caspase-3 activity was measured by overlaying 30 ul of a 0.4 mM DEVD-AMC solution. released AMC cleavage was measured in a TECAN spectrophotometer at 360 nm excitation and 444 nm emission, on a kinetic cycle of 1 hour with readings taken every 5 minutes. Caspase activity was calculated as Vo of AMC fluorescence/sec. Caspase de-repression by our compounds was compared to fully activated extract and activated extract repressed by the presence of XIAP fusion protein.

The target of assay [2] is T2, XIAP bir3 domain (GST-XIAP BIR3RING) (Homo sapiens, UniProt P98170).
T2 construct: made in house; host or cells: E. coli DH5-alpha
Briefly: Fluorescence polarization-based competition assay, XIAP. The class given is binding. Particulars: Ki calculated from displacement of fluorescent probe; read-out: Fluorescent polarization (FP) assay Xiap. The procedure: GST-XIAP BIR3RING: XIAP coding sequence amino acids 246-497 cloned into PGEX2T1 via BamH1 and AVA I. The plasmid was transformed into E. coli DH5a for use in protein expression and purification.
(§1) A fluorescent peptide probe, Fmoc-Ala-Val-Pro-Phe-Tyr(t-Bu)-Leu-Pro-[…]-Gly-OH was prepared using standard Fmoc chemistry on 2-chlorotrityl chloride resin (Int. J. Pept. Prot. Res. 38:555-561, 1991). Cleavage from the resin was performed using 20% acetic acid in dichloromehane (DCM), which left the side chain still blocked. The C-terminal protected carboxylic acid was coupled to 4′-(aminomethy)fluorescein (Molecular Probes, A-1351; Eugene, Oreg.) using excess diisopropylcarbodiimide (DIC) in dimethylformamide (DMF) at room temperature and was purified by silica gel chromatography (10% methanol in DCM). The N-terminal Fmoc protecting group was removed using piperidine (20%) in DMF, and purified by silica gel chromatography (20% methanol in DCM, 0.5% HOAc). Finally, the t-butyl side chain protective groups were removed using 95% trifluoroacetic acid containing 2.5% water and 2.5% triisopropyl silane.
(§2) For all assays, the fluorescence and fluorescence-polarization was evaluated using a Tecan Polarion instrument with the excitation filter set at 485 nm and the emission filter set at 535 nm. For each assay, the concentration of the target protein was first establish by titration of the selected protein in order to produce a linear dose-response signal when incubated alone in the presence of the fluorescent probe. Upon establishing these conditions, the compounds potency (IC50) and selectivity, was assessed in the presence of a fix defined amount of target protein and fluorescent probe and a 10 point serial dilution of the selected compounds. For each IC50 curve, the assays were run as followed: 25 ul/well of diluted compound in 50 mM MES buffer pH 6.5 were added into a black 96 well plate then 25 ul/well of bovine serum albumin (BSA) at 0.5 mg/ml in 50 mM MES pH 6.5. Auto-fluorescence for each compound was first assessed by performing a reading of the compound/BSA solution alone. Then 25 ul of the fluorescein probe diluted into 50 mM MES containing 0.05 mg/ml BSA were added and a reading to detect quenching of fluorescein signal done. Finally 25 ul/well of the target or control protein (GST-BIRs) diluted at the appropriate concentration in 50 mM MES containing 0.05 mg/ml BSA were added and the fluorescence polarization evaluated.
(§3) For each assay the relative polarization-fluorescence units were plotted against the final concentrations of compound and the IC50 calculated using the Grad pad prism software and/or Cambridge soft. The ki value were derived from the calculated IC50 value as described above and according to the equation described in Nikolovska-Coleska, Z. (2004) Anal Biochem 332, 261-273.

Assay [3] has as its system MDA-MB-231 (breast) cancer cells. In words: Cell viability (MTT) assay, MDA cells. Particulars: Homo sapiens, MTT based assay. The procedure: (§4) MDA-MD-231 (breast) and SKOV-3 (ovarian) cancer cells were cultured in RPMI1640 media supplemented with 10% FBS and 100 units/mL of Penicillin and Steptomycin.
(§5) Viability assays were done on a number of cells including MDA-MB-231, SKOV-3, H460, PC3, HCT-116, and SW480 cells. Cells were seeded in 96 well plates at a respective density of 5000 and 2000 cells per well and incubated at 37° C. in presence of 5% CO2 for 24 hours. Selected compounds were diluted into the media at various concentration ranging from 0.01 uM up to 100 uM. Diluted compounds were added onto the MDA-MB-231 cells. For the MDA-MB-231 SKOV3, H460, PC3, HCT-116, and SW480 cells, the compounds were added either alone or in presence of 1-3 ng/ml of TRAIL. After 72 hours cellular viability was evaluated by MTT based assays.

For assay [4], the target named is T3, cIAP-2 bir3 domain (GST-HIAP1(cIAP-2) BIR3) (Homo sapiens, UniProt Q13489).
T3 construct: made in house; host or cells: E. coli DH5-alpha
Briefly: Fluorescence polarization-based competition assay, cIAP-2. The class given is binding. Particulars: Ki calculated from displacement of fluorescent probe; read-out: Fluorescent polarization (FP) assay cIAP-2. As for the experimental part:
GST-HIAP1(cIAP-2) BIR3: HIAP1 coding sequence from amino acids 236-349, cloned into PGex4T3 via BamH1 and XhoI. The plasmid was transformed into E. coli DH5α for use in protein expression and purification.
as §1, §2, §3

The test system of assay [5] is SKOV-3 (ovarian) cancer cells. Briefly: Cell viability (MTT) assay, SKOV3 cells. Particulars: 72 hours, MTT based assay; compounds added either alone or in presence of 1-3 ng/ml of TRAIL. As for the experimental part: as §4, §5
In general terms: Tetrazolium assays rely on reduction of a dye to a coloured formazan, in cell work by metabolically active cells.

T2 sequence (P98170 246-497): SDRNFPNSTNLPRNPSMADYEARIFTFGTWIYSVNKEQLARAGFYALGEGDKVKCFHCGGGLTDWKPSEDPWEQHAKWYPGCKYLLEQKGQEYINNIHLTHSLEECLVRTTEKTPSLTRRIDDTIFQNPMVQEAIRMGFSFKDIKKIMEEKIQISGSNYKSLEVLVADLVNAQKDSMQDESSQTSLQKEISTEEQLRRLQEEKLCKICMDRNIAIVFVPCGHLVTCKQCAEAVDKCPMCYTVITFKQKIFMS
T1 sequence (P98170 93-497): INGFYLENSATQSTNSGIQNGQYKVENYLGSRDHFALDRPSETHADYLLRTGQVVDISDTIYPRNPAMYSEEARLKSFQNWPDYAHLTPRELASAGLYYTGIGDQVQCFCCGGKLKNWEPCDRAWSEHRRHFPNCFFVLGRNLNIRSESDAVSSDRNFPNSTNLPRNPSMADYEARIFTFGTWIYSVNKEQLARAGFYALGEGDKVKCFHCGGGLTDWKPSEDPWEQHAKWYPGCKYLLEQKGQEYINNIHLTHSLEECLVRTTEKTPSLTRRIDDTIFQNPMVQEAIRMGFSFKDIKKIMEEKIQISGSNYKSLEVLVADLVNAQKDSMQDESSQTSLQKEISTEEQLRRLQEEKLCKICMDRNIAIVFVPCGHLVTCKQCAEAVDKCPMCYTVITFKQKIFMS
T3 sequence (Q13489 236-349): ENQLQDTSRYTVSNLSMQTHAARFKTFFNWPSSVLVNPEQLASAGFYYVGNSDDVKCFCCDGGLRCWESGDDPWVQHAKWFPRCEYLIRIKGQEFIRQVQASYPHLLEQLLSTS

A word on the IC50: it is the midpoint of a concentration-inhibition curve. A low value points to greater potency in that assay. The EC50 is the midpoint of the concentration-response curve. `CN[C@@H](C)C(=O)N[C@H](C(=O)N1CCC[C@H]1CN(CCc1ccccc1)S(=O)(=O)c1ccccc1)[C@@H](C)OCC#CC#CCO[C@H](C)[C@H](NC(=O)[C@H](C)NC)C(=O)N1CCC[C@H]1CN(CCc1ccccc1)S(=O)(=O)c1ccccc1` [Compound 4] showed an IC50 in assay [1] of at most 500 nM. Moreover, the Ki in assay [2] was at most 5 nM. The compound further showed an EC50 in assay [3] (MDA-MB-231, 72 hours) below 100 nM.

`CN[C@@H](C)C(=O)N[C@H](C(=O)N1CCC[C@H]1CN(CCc1ccccc1)S(=O)(=O)Cc1ccccc1)[C@@H](C)OCC#CC#CCO[C@H](C)[C@H](NC(=O)[C@H](C)NC)C(=O)N1CCC[C@H]1CN(CCc1ccccc1)S(=O)(=O)Cc1ccccc1` [Compound 6] registered an IC50 in assay [1] of at most 500 nM. Moreover, the Ki in assay [2] is at most 5 nM. The EC50 in assay [3] (MDA-MB-231, 72 hours) was below 100 nM.

In the case of `CN[C@@H](C)C(=O)N[C@H](C(=O)N1CCC[C@H]1CN(CCc1ccccc1)C(=O)OCc1ccccc1)[C@@H](C)OCC#CC#CCO[C@H](C)[C@H](NC(=O)[C@H](C)NC)C(=O)N1CCC[C@H]1CN(CCc1ccccc1)C(=O)OCc1ccccc1` [Compound 7], the IC50 in assay [1] was at most 500 nM. For the same compound, in assay [2], the Ki was at most 100 nM. For the same compound, the EC50 in assay [3] (MDA-MB-231, 72 hours) is below 100 nM.

`CN[C@@H](C)C(=O)N[C@H](C(=O)N1CCC[C@H]1CN(CCc1ccccc1)S(C)(=O)=O)[C@@H](C)OCC#CC#CCO[C@H](C)[C@H](NC(=O)[C@H](C)NC)C(=O)N1CCC[C@H]1CN(CCc1ccccc1)S(C)(=O)=O` [Compound 8]: in assay [1], the IC50 was at most 500 nM. In assay [2], the Ki is at most 5 nM. The compound also came in with an EC50 in assay [3] (MDA-MB-231, 72 h) below 100 nM.

Take `CN[C@@H](C)C(=O)N[C@@H](COCc1ccc(COC[C@H](NC(=O)[C@H](C)NC)C(=O)N2CCC[C@H]2CN(CCc2ccccc2)C(=O)C(F)(F)F)cc1)C(=O)N1CCC[C@H]1CN(CCc1ccccc1)C(=O)C(F)(F)F` [Compound 11]: in assay [1], the IC50 was at least 1000 nM. For the same compound, in assay [4], the Ki was at least 100 nM. Moreover, the EC50 in assay [3] (MDA-MB-231, 72 h) was below 100 nM.

`CN[C@@H](C)C(=O)N[C@@H](COC(=O)CCCCCC(=O)OC[C@H](NC(=O)[C@H](C)NC)C(=O)N1CCC[C@H]1CN(CCc1ccccc1)C(=O)c1ccccc1)C(=O)N1CCC[C@H]1CN(CCc1ccccc1)C(=O)c1ccccc1` [Compound 13]: the Ki in assay [2] is at most 100 nM. The compound further displayed an EC50 in assay [3] (MDA-MB-231, 72 h) below 1000 nM.

As to `CN[C@@H](C)C(=O)N[C@@H](COC(=O)c1ccc(C(=O)OC[C@H](NC(=O)[C@H](C)NC)C(=O)N2CCC[C@H]2CN(CCc2ccccc2)C(=O)c2ccccc2)cc1)C(=O)N1CCC[C@H]1CN(CCc1ccccc1)C(=O)c1ccccc1` [Compound 14], in assay [2], the Ki is at most 100 nM. The compound also gave an EC50 in assay [3] (MDA-MB-231, 72 h) below 1000 nM.

In the case of `CN[C@@H](C)C(=O)NC(CCCNC(=O)CCC(=O)NCCC[C@H](NC(=O)[C@H](C)NC)C(=O)N1CCC[C@H]1CN(CCc1ccccc1)S(=O)(=O)c1ccc(F)cc1)C(=O)N1CCC[C@H]1CN(CCc1ccccc1)S(=O)(=O)c1ccc(F)cc1` (stereo partly drawn) [Compound 40], the EC50 in assay [5] is below 1000 nM.

Take `CN[C@@H](C)C(=O)N[C@@H](CCCNC(=O)C(=O)NCCC[C@H](NC(=O)[C@H](C)NC)C(=O)N1CCC[C@H]1CN(CCc1ccccc1)S(=O)(=O)c1ccc(F)cc1)C(=O)N1CCC[C@H]1CN(CCc1ccccc1)S(=O)(=O)c1ccc(F)cc1` [Compound 41]: the EC50 in assay [5] was below 1000 nM.

Take `CN[C@@H](C)C(=O)N[C@@H](CCCNC(=O)NCCC[C@H](NC(=O)[C@H](C)NC)C(=O)N1CCC[C@H]1CN(CCc1ccccc1)S(=O)(=O)c1ccc(F)cc1)C(=O)N1CCC[C@H]1CN(CCc1ccccc1)S(=O)(=O)c1ccc(F)cc1` [Compound 42]: the concentration for a half-maximal effect (EC50) in assay [5] was above 1000 nM.

As for `CN[C@@H](C)C(=O)N[C@@H](CCCNC(=O)CCCC(=O)NCCC[C@H](NC(=O)[C@H](C)NC)C(=O)N1CCC[C@H]1CN(CCc1ccccc1)S(=O)(=O)c1ccc(F)cc1)C(=O)N1CCC[C@H]1CN(CCc1ccccc1)S(=O)(=O)c1ccc(F)cc1` [Compound 43], the EC50 in assay [5] was below 1000 nM.

As to `CN[C@@H](C)C(=O)N[C@@H](CCCNC(=O)CCCCC(=O)NCCC[C@H](NC(=O)[C@H](C)NC)C(=O)N1CCC[C@H]1CN(CCc1ccccc1)S(=O)(=O)c1ccc(F)cc1)C(=O)N1CCC[C@H]1CN(CCc1ccccc1)S(=O)(=O)c1ccc(F)cc1` [Compound 44], the EC50 in assay [5] is below 1000 nM.

Regarding `CN[C@@H](C)C(=O)N[C@@H](CCCNC(=O)c1ccc(C(=O)NCCC[C@H](NC(=O)[C@H](C)NC)C(=O)N2CCC[C@H]2CN(CCc2ccccc2)S(=O)(=O)c2ccc(F)cc2)cc1)C(=O)N1CCC[C@H]1CN(CCc1ccccc1)S(=O)(=O)c1ccc(F)cc1` [Compound 45], the EC50 in assay [5] is below 1000 nM.

Regarding `CN[C@@H](C)C(=O)N[C@@H](CCCCNC(=O)C(=O)NCCCC[C@H](NC(=O)[C@H](C)NC)C(=O)N1CCC[C@H]1CN(CCc1ccccc1)C(=O)C(F)(F)F)C(=O)N1CCC[C@H]1CN(CCc1ccccc1)C(=O)C(F)(F)F` [Compound 46], the EC50 in assay [5] was below 100 nM.

Consider `CN[C@@H](C)C(=O)N[C@@H](CCCCNC(=O)NCCCC[C@H](NC(=O)[C@H](C)NC)C(=O)N1CCC[C@H]1CN(CCc1ccccc1)C(=O)C(F)(F)F)C(=O)N1CCC[C@H]1CN(CCc1ccccc1)C(=O)C(F)(F)F` [Compound 47], for which the EC50 in assay [5] was below 1000 nM.

The values are drawn from US8063095B2, “IAP BIR domain binding compounds” (Pharmascience Inc., priority 2005, dated 2011).
